According to patent publication US12122761B2, “2-azaspiro[3.4]octane derivatives as M4 agonists” (NOVARTIS AG, priority 2019, dated 2024):

How the values were obtained:
Type in all cases: cell-based
[1] = biological target: T1, human cloned CHRM2 receptor (M2_CHO cells) (Homo sapiens, UniProt P08172); assay: CHRM2 Ca++ Flux Assay (agonist mode, FDSS 7000EX); settings: for Emax / M2 FDSS PA: Percent Activity measured to EC100 of Carbachol; for Emax: read-out: M2 FDSS PA; for EC50: agonist mode, geometric mean if tested more than once, read-out: M2 FDSS EC50
T1 construct: expressed in transfected cells; host or cells: CHO-K1
T1 sequence (P08172 1-466): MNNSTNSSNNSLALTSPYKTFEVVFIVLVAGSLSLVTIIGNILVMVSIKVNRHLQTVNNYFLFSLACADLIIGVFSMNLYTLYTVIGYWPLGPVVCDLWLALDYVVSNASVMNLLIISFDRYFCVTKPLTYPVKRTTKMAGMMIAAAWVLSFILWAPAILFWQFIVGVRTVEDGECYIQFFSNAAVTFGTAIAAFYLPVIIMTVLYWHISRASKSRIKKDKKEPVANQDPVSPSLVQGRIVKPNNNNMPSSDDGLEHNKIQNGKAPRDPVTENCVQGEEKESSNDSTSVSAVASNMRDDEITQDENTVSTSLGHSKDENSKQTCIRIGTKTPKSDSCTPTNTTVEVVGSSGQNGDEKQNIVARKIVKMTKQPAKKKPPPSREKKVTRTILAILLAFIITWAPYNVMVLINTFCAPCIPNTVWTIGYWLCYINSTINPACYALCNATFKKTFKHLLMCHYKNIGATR
Procedure, shortened: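 Agonist-mode Ca++ flux in CHO-K1 cells stably expressing human CHRM2, dye-loaded, then held 60 min at room temperature in buffer with 20 μM ATP before compound addition; traces read over 3 minutes. Four-parameter fit of triplicate wells; percent activity relative to Carbachol EC100.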

[2] = biological target: T2, human cloned CHRM3 receptor (M3_CHO cells) (Homo sapiens, UniProt P20309); assay: CHRM3 Ca++ Flux Assay (agonist mode, FDSS 7000EX); settings: for Emax / M3 FDSS PA: Percent Activity measured to EC100 of Carbachol; for Emax: read-out: M3 FDSS PA; for EC50: agonist mode, geometric mean if tested more than once, read-out: M3 FDSS EC50
T2 construct: expressed in transfected cells; host or cells: CHO-K1
T2 sequence (P20309 whole entry): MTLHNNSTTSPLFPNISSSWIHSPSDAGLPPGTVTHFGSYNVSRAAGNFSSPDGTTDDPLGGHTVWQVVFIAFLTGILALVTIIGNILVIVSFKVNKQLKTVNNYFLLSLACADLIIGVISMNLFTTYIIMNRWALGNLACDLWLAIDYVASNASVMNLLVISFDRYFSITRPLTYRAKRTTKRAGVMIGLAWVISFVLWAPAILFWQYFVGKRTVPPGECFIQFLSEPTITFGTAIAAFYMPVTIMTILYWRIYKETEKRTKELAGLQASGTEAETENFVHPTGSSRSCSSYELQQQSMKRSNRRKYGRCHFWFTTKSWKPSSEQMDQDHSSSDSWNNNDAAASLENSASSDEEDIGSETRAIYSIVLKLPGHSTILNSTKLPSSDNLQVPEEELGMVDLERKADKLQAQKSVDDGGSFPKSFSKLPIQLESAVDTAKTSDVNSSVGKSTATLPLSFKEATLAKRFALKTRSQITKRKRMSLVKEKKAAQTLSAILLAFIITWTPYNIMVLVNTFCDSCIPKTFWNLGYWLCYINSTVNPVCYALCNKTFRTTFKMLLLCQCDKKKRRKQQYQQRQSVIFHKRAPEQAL
Procedure, shortened: (§1)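 Stable CHO-K1 lines (human M3 or M5), calcium-dye loaded ≥1 h, assayed in Ca/Mg-free HBSS + 20 mM HEPES + 2.5 mM probenecid. 11-pt dose response, triplicate, 3 min fluorescence read. 4-parameter regression; % activity vs carbachol EC100.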

[3] = biological target: T3, human cloned CHRM5 receptor (M5_CHO) (Homo sapiens, UniProt P08912); assay: CHRM5 Ca++ Flux Assay (agonist mode, FDSS 7000EX); settings: for Emax / M5 FDSS PA: Percent Activity measured to EC100 of Carbachol; for Emax: read-out: M5 FDSS PA; for EC50: agonist mode, geometric mean if tested more than once, read-out: M5 FDSS EC50
T3 construct: expressed in transfected cells; host or cells: CHO (M5_CHO)
T3 sequence (P08912 1-532): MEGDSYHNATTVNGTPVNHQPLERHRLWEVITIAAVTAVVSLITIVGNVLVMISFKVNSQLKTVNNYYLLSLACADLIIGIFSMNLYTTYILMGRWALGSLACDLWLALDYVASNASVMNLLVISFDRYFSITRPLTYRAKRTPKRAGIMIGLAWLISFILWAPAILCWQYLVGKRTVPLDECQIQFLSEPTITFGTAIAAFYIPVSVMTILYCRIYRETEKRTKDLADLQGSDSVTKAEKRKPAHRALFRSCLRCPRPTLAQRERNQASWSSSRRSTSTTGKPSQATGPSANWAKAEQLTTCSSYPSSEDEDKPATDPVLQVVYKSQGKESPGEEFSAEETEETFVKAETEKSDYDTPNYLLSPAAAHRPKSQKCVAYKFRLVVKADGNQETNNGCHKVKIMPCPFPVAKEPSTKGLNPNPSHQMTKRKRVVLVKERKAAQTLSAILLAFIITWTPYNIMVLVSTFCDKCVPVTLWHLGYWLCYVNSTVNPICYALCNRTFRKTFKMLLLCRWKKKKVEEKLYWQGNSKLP
Procedure, shortened: as §1

| Emax [1] | Emax [2] | EC50 [2] | Emax [3] | EC50 [3] | M2 FDSS PA [1] | M3 FDSS PA [2] | M5 FDSS PA [3] | EC50 [1] | SMILES |
| --- | --- | --- | --- | --- | --- | --- | --- | --- | --- |
| 35% | 9% | 11.3 µM | 8% | 22.9 µM |  |  |  |  | COc1ccccc1C1CCN([C@@H]2CCC3(C2)CN(c2ccc(Cl)nn2)C3)CC1 [Example 5N, (R)-2-(6-chloropyridazin-3-yl)-6-(4-(2-methoxyphenyl)piperidin-1-yl)-2-azaspiro[3.4]octane] |
|  |  | > 25 µM |  | > 25 µM | 18% | 0% | 0% |  | COc1ccccc1C1CCN([C@@H]2CCC3(C2)CN(c2ncns2)C3)CC1 (single isomer, unassigned) [Example 10Q, (R)-5-(6-(4-(2-methoxyphenyl)piperidin-1-yl)-2-azaspiro[3.4]octan-2-yl)-1,2,4-thiadiazole or (S)-5-(6-(4-(2-methoxyphenyl)piperidin-1-yl)-2-azaspiro[3.4]octan-2-yl)-1,2,4-thiadiazole] |
|  |  | > 25 µM |  | > 25 µM | 0% | 0% | 0% |  | O=C(N1CC2(CC[C@@H](N3CCC(c4ccccc4OCC4CC4)CC3)C2)C1)C1(F)CC1 (single isomer, unassigned) [Example 7O, (R)-(6-(4-(2-(cyclopropylmethoxy)phenyl)piperidin-1-yl)-2-azaspiro[3.4]octan-2-yl)(1-fluorocyclopropyl)methanone or (R)-(6-(4-(2-(cyclopropylmethoxy)phenyl)piperidin-1-yl)-2-azaspiro[3.4]octan-2-yl)(1-fluorocyclopropyl)methanone] |
|  |  | > 25 µM |  | > 25 µM | 15% | 0% | 0% | 6.59 µM | Cc1nnc(COc2ccccc2C2CCN([C@@H]3CCC4(C3)CN(C(=O)C3(F)CC3)C4)CC2)s1 (single isomer, unassigned) [Example 7R, (R)-(1-fluorocyclopropyl)(6-(4-(2-((5-methyl-1,3,4-thiadiazol-2-yl)methoxy)phenyl)piperidin-1-yl)-2-azaspiro[3.4]octan-2-yl)methanone or (S)-(1-fluorocyclopropyl)(6-(4-(2-((5-methyl-1,3,4-thiadiazol-2-yl)methoxy)phenyl)piperidin-1-yl)-2-azaspiro[3.4]octan-2-yl)methanone] |
|  |  | > 25 µM |  | > 25 µM | 0% | 0% | 0% |  | Cc1noc(C)c1COc1ccccc1C1CCN([C@@H]2CCC3(C2)CN(C(=O)C2(F)CC2)C3)CC1 (single isomer, unassigned) [Example 7U, (R)-(6-(4-(2-((3,5-dimethylisoxazol-4-yl)methoxy)phenyl)piperidin-1-yl)-2-azaspiro[3.4]octan-2-yl)(1-fluorocyclopropyl)methanone or (S)-(6-(4-(2-((3,5-dimethylisoxazol-4-yl)methoxy)phenyl)piperidin-1-yl)-2-azaspiro[3.4]octan-2-yl)(1-fluorocyclopropyl)methanone] |
| 0% | 0% | > 25 µM | 0% | > 25 µM |  |  |  |  | COc1ccccc1C1CCN([C@@H]2CCC3(C2)CN(c2ncnc(C)n2)C3)CC1 [Example 5M, (R)-6-(4-(2-methoxyphenyl)piperidin-1-yl)-2-(4-methyl-1,3,5-triazin-2-yl)-2-azaspiro[3.4]octane] |
| 0% | 0% | > 25 µM | 0% | > 25 µM |  |  |  |  | COc1ccccc1C1CCN([C@@H]2CCC3(C2)CN(c2cncnc2)C3)CC1 [Example 5A, (R)-6-(4-(2-methoxyphenyl)piperidin-1-yl)-2-(pyrimidin-5-yl)-2-azaspiro[3.4]octane] |
| 0% | 0% | > 25 µM | 0% | > 25 µM |  |  |  |  | Cc1ncncc1N1CC2(CC[C@@H](N3CCC(c4ccccc4OCC(C)(C)O)CC3)C2)C1 [Example 5C, (R)-2-methyl-1-(2-(1-(2-(4-methylpyrimidin-5-yl)-2-azaspiro[3.4]octan-6-yl)piperidin-4-yl)phenoxy)propan-2-ol] |
|  |  | > 25 µM |  | > 25 µM | 30% | 0% | 0% | 0.035 µM | Fc1ccc(C2CCOCC2)c(C2CCN([C@@H]3CCC4(C3)CN(c3cncnc3)C4)CC2)c1 (single isomer, unassigned) [Example 10C, (R)-6-(4-(5-fluoro-2-(tetrahydro-2H-pyran-4-yl)phenyl)piperidin-1-yl)-2-(pyrimidin-5-yl)-2-azaspiro[3.4]octane or (S)-6-(4-(5-fluoro-2-(tetrahydro-2H-pyran-4-yl)phenyl)piperidin-1-yl)-2-(pyrimidin-5-yl)-2-azaspiro[3.4]octane] |
|  |  | > 25 µM |  | 0.071 µM | 0% | 0% | 9% |  | Cc1nc(COc2ccccc2C2CCN([C@@H]3CCC4(C3)CN(C(=O)C3(F)CC3)C4)CC2)no1 (single isomer, unassigned) [Example 7X, (R)-(1-fluorocyclopropyl)(6-(4-(2-((5-methyl-1,2,4-oxadiazol-3-yl)methoxy)phenyl)piperidin-1-yl)-2-azaspiro[3.4]octan-2-yl)methanone or (S)-(1-fluorocyclopropyl)(6-(4-(2-((5-methyl-1,2,4-oxadiazol-3-yl)methoxy)phenyl)piperidin-1-yl)-2-azaspiro[3.4]octan-2-yl)methanone] |
|  |  | > 25 µM |  | > 25 µM | 17% | 0% | 0% |  | FC(F)Oc1ccccc1C1CCN([C@@H]2CCC3(C2)CN(c2nncs2)C3)CC1 (single isomer, unassigned) [Example 10O, (R)-2-(6-(4-(2-(difluoromethoxy)phenyl)piperidin-1-yl)-2-azaspiro[3.4]octan-2-yl)-1,3,4-thiadiazole or (S)-2-(6-(4-(2-(difluoromethoxy)phenyl)piperidin-1-yl)-2-azaspiro[3.4]octan-2-yl)-1,3,4-thiadiazole] |
|  |  | > 25 µM |  | > 25 µM | 31% | 0% | 0% | 14.4 µM | Fc1cncc(N2CC3(CC[C@@H](N4CCC(c5cc(F)ccc5OC5CCOCC5)CC4)C3)C2)c1 (single isomer, unassigned) [Example 10B, (R)-6-(4-(5-fluoro-2-((tetrahydro-2H-pyran-4-yl)oxy)phenyl)piperidin-1-yl)-2-(5-fluoropyridin-3-yl)-2-azaspiro[3.4]octane or (S)-6-(4-(5-fluoro-2-((tetrahydro-2H-pyran-4-yl)oxy)phenyl)piperidin-1-yl)-2-(5-fluoropyridin-3-yl)-2-azaspiro[3.4]octane] |
| 0% | 0% | > 25 µM | 0% | > 25 µM |  |  |  |  | c1ccc(C2CCN([C@@H]3CCC4(C3)CN(c3ncncn3)C4)CC2)c(OCC2CCOCC2)c1 [Example 5Q, (R)-6-(4-(2-((tetrahydro-2H-pyran-4-yl)methoxy)phenyl)piperidin-1-yl)-2-(1,3,5-triazin-2-yl)-2-azaspiro[3.4]octane] |
